Our source for the EC50 values is US20240101546A1, “HETEROARYL-ACETYLENES, PHARMACEUTICAL COMPOSITIONS THEREOF, AND THEIR THERAPEUTIC APPLICATIONS” (Eubulus Biotherapeutics Inc., priority 2020, published 2024).

pEC50: −log10 of the molar value. A value given as a limit tells only on which side of the number the result lay.

The subject of the experiment is lung cancer cell line NCI-H82. The experiment can be described thus: Cell proliferation assay, NCI-H82 (CELL-TITER GLO). The experiment is classed as cell-based. The conditions noted are these: Homo sapiens, NCI-H82, 72 h, NCI-H82 cells, 72 h incubation, cell viability by CELL-TITER GLO, top concentration 1 μM; read-out: EC50, Inhibition of NCl-H82 Cell Proliferation. The method in brief: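 NCI-H82 cells, 1,000 per well in RPMI1640, were treated after overnight plating with a 3-fold dilution series from 1 μM. Viability read by CellTiter-Glo luminescence after 72 h. EC50 derived from the curves.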
Take `C#Cc1nc(NC(=O)N[C@@H](C(=O)NC)c2ccc(-c3cccnc3C3(C#N)CC3)c(Cl)c2)cs1` [Compound A74, (R)-2-(3-Chloro-4-(2-(1-cyanocyclopropyl)pyridin-3-yl)phenyl)-2-(3-(2-ethynyl-thiazol-4-yl)ureido)-N-methylacetamide]: the pEC50 is no less than 6.70. The result for `C#Cc1nc(NC(=O)N[C@@H](CO)c2ccc(-c3c(F)cccc3C3(C#N)CC3)cn2)cs1` [Compound A78, (R)-1-(1-(5-(2-(1-Cyanocyclopropyl)-6-fluorophenyl)pyridin-2-yl)-2-hydroxy-ethyl)-3-(2-ethynylthiazol-4-yl)urea] reads no less than 6.70; that for `C#Cc1nc(NC(=O)N[C@@H](COC(N)=O)c2ccc(-c3cccc(C#N)c3)cc2)cs1` [Compound A221, (R)-2-(3′-Cyano-[1,1′-biphenyl]-4-yl)-2-(3-(2-ethynylthiazol-4-yl)ureido)ethyl carbamate], no less than 6.70. The result for `C#Cc1nc(NC(=O)N[C@@H](COC(N)=O)c2ccc(-c3cc(C4(C#N)CC4)ccn3)cc2)cs1` [Compound A57, (R)-2-(4-(4-(1-Cyanocyclopropyl)pyridin-2-yl)phenyl)-2-(3-(2-ethynylthiazol-4-yl)ureido)ethyl carbamate] reads no less than 6.70; that for `C#Cc1nc(NC(=O)N[C@@H](COC(N)=O)c2ccc(-c3cccc4nsnc34)cc2)cs1` [Compound A226, (R)-2-(4-(Benzo[c][1,2,5]thiadiazol-4-yl)phenyl)-2-(3-(2-ethynylthiazol-4-yl)-ureido)ethyl carbamate], no less than 6.70; that for `C#Cc1nc(NC(=O)N[C@@H](CO)c2ccc(-c3c(F)cc(F)cc3C3(C#N)CC3)cn2)cs1` [Compound A79, (R)-1-(1-(5-(2-(1-Cyanocyclopropyl)-4,6-difluorophenyl)pyridin-2-yl)-2-hydroxyethyl)-3-(2-ethynylthiazol-4-yl)urea], no less than 6.70. For the molecule `C#Cc1nc(NC(=O)N[C@@H](CO)c2ccc(-c3cccc(N4CCCC4)n3)cc2)cs1` [Compound A88, (R)-1-(2-Ethynylthiazol-4-yl)-3-(2-hydroxy-1-(4-(6-(pyrrolidin-1-yl)pyridin-2-yl)phenyl)ethyl)urea], the pEC50 was no less than 6.70.

Turning to `C#Cc1nc(NC(=O)N[C@@H](C(=O)N(C)C)c2ccc(-c3cccc4ncsc34)cc2)cs1` [Compound A220, (R)-2-(4-(Benzo[d]thiazol-7-yl)phenyl)-2-(3-(2-ethynylthiazol-4-yl)ureido)-N,N-dimethylacetamide], the pEC50 is no less than 6.70.

Regarding `C#Cc1nc(NC(=O)N[C@@H](COC(N)=O)c2ccc(-c3cccnc3N3CC(F)(F)C3)cc2)cs1` [Compound A103, (R)-2-(4-(2-(3,3-Difluoroazetidin-1-yl)pyridin-3-yl)phenyl)-2-(3-(2-ethynyl-thiazol-4-yl)ureido)ethyl carbamate], the pEC50 is no less than 6.70. The result for `C#Cc1nc(NC(=O)N[C@@H](C)c2ccc(-c3cccc4ncsc34)cc2)cs1` [Compound A25, (S)-1-(1-(4-(Benzo[d]thiazol-7-yl)phenyl)ethyl)-3-(2-ethynylthiazol-4-yl)urea] reads no less than 6.70. On to `C#Cc1nc(NC(=O)Nc2ncnc3cc(-c4c(O)cccc4F)ccc23)cs1` [Compound A163, 1-(2-Ethynylthiazol-4-yl)-3-(7-(2-fluoro-6-hydroxyphenyl)quinazolin-4-yl)urea], for which the pEC50 was no less than 6.70. Regarding `C#Cc1nc(NC(=O)N[C@@H](CC#N)c2ccc(-c3cccc4ncsc34)cc2)cs1` [Compound A196, (S)-1-(1-(4-(Benzo[d]thiazol-7-yl)phenyl)-2-cyanoethyl)-3-(2-ethynylthiazol-4-yl)urea], the pEC50 is no less than 6.70. Take `C#Cc1nc(NC(=O)N[C@@H](COC(N)=O)c2ccc(-c3cccc4ncsc34)cc2)cs1` [Compound A223, (R)-2-(4-(Benzo[d]thiazol-7-yl)phenyl)-2-(3-(2-ethynylthiazol-4-yl)ureido)ethyl carbamate]: the pEC50 was no less than 6.70. The result for `C#Cc1nc(NC(=O)N[C@@H](COC(=O)CCC/C=C\C/C=C\C/C=C\C/C=C\CCCCC)c2ccc(-c3cccc4ncsc34)cc2)cs1` [Compound A117, (5Z,8Z,11Z,14Z)—(R)-2-(4-(Benzo[d]thiazol-7-yl)phenyl)-2-(3-(2-ethynylthiazol-4-yl)ureido)ethyl icosa-5,8,11,14-tetraenoate] reads no less than 6.70; that for `C#Cc1nc(NC(=O)N[C@@H](CO)c2ccc(C3=CCCN(C)C3)cc2)cs1` [Compound A193, (R)-1-(2-Ethynylthiazol-4-yl)-3-(2-hydroxy-1-(4-(1-methyl-1,2,5,6-tetrahydro-pyridin-3-yl)phenyl)ethyl)urea], 6.00 to 6.70.
